In ChEMBL document CHEMBL4364276, “Discovery of 4-phenyl-2H-benzo[b][1,4]oxazin-3(4H)-one derivatives as potent and orally active PI3K/mTOR dual inhibitors” (Eur J Med Chem, 2019):
pIC50: −log10 of the molar value.

Key:
[1] = biological target: Myosin light chain kinase family member 4 (Homo sapiens) (UniProt Q86YV6); assay: Inhibition of human MYLK4 at 100 nM using KKRPQRRYSNVF as substrate by [gamma-33P]-ATP assay
[2] = biological target: Serine/threonine-protein kinase BRSK1 (Homo sapiens) (UniProt Q8TDC3); assay: Inhibition of human BRSK1 at 100 nM using KKKVSRSGLYRSPSMPENLNRPR as substrate by [gamma-33P]-ATP assay
[3] = biological target: Inhibitor of nuclear factor kappa-B kinase subunit alpha (Homo sapiens) (UniProt O15111); assay: Inhibition of human IKKalpha at 100 nM using KKKKERLLDDRHDSGLDSMKDEE as substrate by [gamma-33P]-ATP assay
[4] = biological target: CDK7/Cyclin H/MNAT1 (Homo sapiens) (UniProt P51946+P50613+P51948); assay: Inhibition of human CDK7/cyclin-H/MNAT1 at 100 nM using MBP as substrate by [gamma-33P]-ATP assay; format: protein-complex assay
[5] = biological target: Dual specificity tyrosine-phosphorylation-regulated kinase 4 (Homo sapiens) (UniProt Q9NR20); assay: Inhibition of human DYRK4 at 100 nM using RRRFRPASPLRGPPK as substrate by [gamma-33P]-ATP assay
[6] = biological target: Serine/threonine-protein kinase Nek5 (Homo sapiens) (UniProt Q6P3R8); assay: Inhibition of human NEK5 at 100 nM using MBP as substrate by [gamma-33P]-ATP assay
[7] = biological target: Serine/threonine-protein kinase A-Raf (Homo sapiens) (UniProt P10398); assay: Inhibition of human ARAF at 100 nM using MEK1 as substrate by [gamma-33P]-ATP assay
[8] = biological target: [Pyruvate dehydrogenase (acetyl-transferring)] kinase isozyme 1, mitochondrial (Homo sapiens) (UniProt Q15118); assay: Inhibition of human PDK1 at 100 nM using MBP as substrate by [gamma-33P]-ATP assay
[9] = biological target: Serine/threonine-protein kinase Nek7 (Homo sapiens) (UniProt Q8TDX7); assay: Inhibition of human NEK7 at 100 nM using casein as substrate by [gamma-33P]-ATP assay
HepG2 = assay: cells; conditions: Homo sapiens, HepG2, 72 h
[10] = biological target: Mitogen-activated protein kinase 13 (Homo sapiens) (UniProt O15264); assay: Inhibition of human p38delta at 100 nM using MBP as substrate by [gamma-33P]-ATP assay
[11] = biological target: Serine/threonine-protein kinase VRK2 (Homo sapiens) (UniProt Q86Y07); assay: Inhibition of human VRK2 at 100 nM using casein as substrate by [gamma-33P]-ATP assay
[12] = biological target: Mitogen-activated protein kinase 10 (Homo sapiens) (UniProt P53779); assay: Inhibition of human JNK3 at 100 nM using ATF2 as substrate by [gamma-33P]-ATP assay
[13] = biological target: Ribosomal protein S6 kinase beta-1 (Homo sapiens) (UniProt P23443); assay: Inhibition of human p70S6K at 100 nM using KKRNRTLTK as substrate by [gamma-33P]-ATP assay
[14] = biological target: CDK3/Cyclin E (Homo sapiens) (UniProt P24864+Q00526); assay: Inhibition of human CDK3/cyclin-E at 100 nM using histone H1 as substrate by [gamma-33P]-ATP assay; format: protein-complex assay
PC-12 = assay: Cytotoxicity against rat PC12 cells assessed as reduction in cell viability at 0.625 to 20 uM incubated for 72 hrs by MTT assay; format: cell-based; conditions: pc-12, 72 h
A549 = assay: Antitumor activity against human A549 cells xenografted in BALB/c nude mouse assessed as tumor growth inhibition at 40 mg/kg, ig administered for 30 days measured every 3 days during compound dosing relative to control; format: functional; conditions: A549, po, read-out: TGI
[15] = biological target: CDK6/cyclin D3 (Homo sapiens) (UniProt P30281+Q00534); assay: Inhibition of human CDK6/cyclin-D3 at 100 nM using RB protein as substrate by [gamma-33P]-ATP assay; format: protein-complex assay
HeLa = assay: Antitumor activity against human HeLa cells xenografted in BALB/c nude mouse assessed as tumor growth inhibition at 50 mg/kg, ig administered for 30 days measured every 3 days during compound dosing relative to control; format: functional; conditions: po, read-out: TGI
[16] = biological target: Mitogen-activated protein kinase 7 (Homo sapiens) (UniProt Q13164); assay: Inhibition of human ERK5 at 100 nM using MBP as substrate by [gamma-33P]-ATP assay
[17] = Tmax in Sprague-Dawley rat at 10 mg/kg, po measured upto 24 hrs by LC-MS/MS analysis; format: ADME, organism-based; conditions: in vivo
[18] = biological target: Receptor-interacting serine/threonine-protein kinase 2 (Homo sapiens) (UniProt O43353); assay: Inhibition of human RIPK2 at 100 nM using MBP as substrate by [gamma-33P]-ATP assay
[19] = biological target: Mitogen-activated protein kinase 3 (Homo sapiens) (UniProt P27361); assay: Inhibition of human ERK1 at 100 nM using MBP as substrate by [gamma-33P]-ATP assay
Homo sapiens = organism: Homo sapiens; assay: Inhibition of human AMPK (A1/B1/G2) at 100 nM using HMRSAMSGLHLVKRR as substrate by [gamma-33P]-ATP assay
[20] = biological target: Aurora kinase B (Homo sapiens) (UniProt Q96GD4); assay: Inhibition of human Aurora B at 100 nM using [H-LRRASLG] as substrate by [gamma-33P]-ATP assay
[21] = biological target: Serine/threonine-protein kinase 25 (Homo sapiens) (UniProt O00506); assay: Inhibition of human STK25 at 100 nM using MBP as substrate by [gamma-33P]-ATP assay
[22] = biological target: MAP kinase-interacting serine/threonine-protein kinase 2 (Homo sapiens) (UniProt Q9HBH9); assay: Inhibition of human MNK2 at 100 nM using MBP as substrate by [gamma-33P]-ATP assay
[23] = Toxicity in BALB/c mouse xenografted with human HeLa cells assessed as reduction in body weight at 20 to 50 mg/kg, ig administered for 30 days; format: organism-based; conditions: in vivo, po, 720 h
[24] = biological target: Serine/threonine-protein kinase 4 (Homo sapiens) (UniProt Q13043); assay: Inhibition of human MST1 at 100 nM using KKSRGDYMTMQIG as substrate by [gamma-33P]-ATP assay
[25] = biological target: Tyrosine-protein kinase ABL1 (Homo sapiens) (UniProt P00519); assay: Inhibition of human ABL1 at 100 nM using EAIYAAPFAKKK as substrate by [gamma-33P]-ATP assay
[26] = biological target: Calcium/calmodulin-dependent protein kinase type IV (Homo sapiens) (UniProt Q16566); assay: Inhibition of human CAMK4 at 100 nM using KKLNRTLSFAEPG as substrate by [gamma-33P]-ATP assay
[27] = biological target: Activated CDC42 kinase 1 (Homo sapiens) (UniProt Q07912); assay: Inhibition of human ACK1 at 100 nM using EAIYAAPFAKKK as substrate by [gamma-33P]-ATP assay

Chain of Serine/threonine-protein kinase BRSK1 (Homo sapiens) (Q8TDC3 whole entry): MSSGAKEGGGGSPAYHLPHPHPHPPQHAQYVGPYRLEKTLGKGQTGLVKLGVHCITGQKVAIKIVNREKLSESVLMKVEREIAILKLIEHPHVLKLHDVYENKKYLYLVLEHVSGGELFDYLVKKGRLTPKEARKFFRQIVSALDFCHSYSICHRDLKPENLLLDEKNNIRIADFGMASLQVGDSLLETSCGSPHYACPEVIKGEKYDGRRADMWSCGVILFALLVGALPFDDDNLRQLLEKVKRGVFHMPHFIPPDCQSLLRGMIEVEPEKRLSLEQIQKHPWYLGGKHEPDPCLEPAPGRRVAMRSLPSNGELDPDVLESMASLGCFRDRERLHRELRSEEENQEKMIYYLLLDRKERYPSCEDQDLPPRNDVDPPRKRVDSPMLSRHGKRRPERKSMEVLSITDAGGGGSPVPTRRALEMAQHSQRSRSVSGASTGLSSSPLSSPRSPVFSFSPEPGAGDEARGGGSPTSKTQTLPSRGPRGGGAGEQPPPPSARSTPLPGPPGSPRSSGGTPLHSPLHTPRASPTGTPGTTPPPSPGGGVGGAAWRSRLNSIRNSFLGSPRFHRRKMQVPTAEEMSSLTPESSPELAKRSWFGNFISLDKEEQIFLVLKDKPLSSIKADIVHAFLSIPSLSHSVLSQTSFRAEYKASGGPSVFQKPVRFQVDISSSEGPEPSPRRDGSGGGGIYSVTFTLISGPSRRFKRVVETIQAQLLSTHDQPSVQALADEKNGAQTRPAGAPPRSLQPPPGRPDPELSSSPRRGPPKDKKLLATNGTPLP
Chain of Mitogen-activated protein kinase 7 (Homo sapiens) (Q13164 2-816 limits assumed): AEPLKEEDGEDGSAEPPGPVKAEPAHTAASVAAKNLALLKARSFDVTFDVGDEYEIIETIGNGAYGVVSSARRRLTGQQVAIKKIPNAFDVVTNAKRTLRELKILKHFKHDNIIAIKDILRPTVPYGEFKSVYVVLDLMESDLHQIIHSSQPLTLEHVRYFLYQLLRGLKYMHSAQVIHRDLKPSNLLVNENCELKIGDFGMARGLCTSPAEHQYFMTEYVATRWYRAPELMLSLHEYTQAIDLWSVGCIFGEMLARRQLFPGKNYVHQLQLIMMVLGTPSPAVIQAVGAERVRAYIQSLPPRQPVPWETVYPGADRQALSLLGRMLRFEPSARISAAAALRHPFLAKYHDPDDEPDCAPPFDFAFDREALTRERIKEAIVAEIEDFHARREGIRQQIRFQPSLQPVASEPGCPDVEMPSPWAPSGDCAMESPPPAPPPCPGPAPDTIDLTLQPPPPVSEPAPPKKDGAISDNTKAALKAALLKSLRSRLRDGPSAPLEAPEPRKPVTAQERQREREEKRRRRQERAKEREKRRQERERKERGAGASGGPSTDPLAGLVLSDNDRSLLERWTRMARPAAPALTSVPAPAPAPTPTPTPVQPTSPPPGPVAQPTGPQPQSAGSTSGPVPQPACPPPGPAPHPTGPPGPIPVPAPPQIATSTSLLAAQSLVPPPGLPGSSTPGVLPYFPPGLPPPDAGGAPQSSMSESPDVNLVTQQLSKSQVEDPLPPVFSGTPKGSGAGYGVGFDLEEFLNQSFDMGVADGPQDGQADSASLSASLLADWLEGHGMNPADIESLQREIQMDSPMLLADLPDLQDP
Chain of Myosin light chain kinase family member 4 (Homo sapiens) (Q86YV6 whole entry): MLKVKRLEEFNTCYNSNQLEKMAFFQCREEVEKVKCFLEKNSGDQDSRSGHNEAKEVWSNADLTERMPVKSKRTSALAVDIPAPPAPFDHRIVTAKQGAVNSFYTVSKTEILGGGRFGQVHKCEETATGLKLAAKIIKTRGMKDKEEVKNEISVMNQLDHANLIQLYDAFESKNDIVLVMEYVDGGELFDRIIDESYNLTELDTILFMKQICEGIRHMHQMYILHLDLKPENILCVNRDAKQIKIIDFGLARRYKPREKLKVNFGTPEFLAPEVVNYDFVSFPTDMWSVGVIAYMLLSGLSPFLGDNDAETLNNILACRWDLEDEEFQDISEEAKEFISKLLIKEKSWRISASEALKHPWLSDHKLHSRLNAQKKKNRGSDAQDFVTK
Chain of MAP kinase-interacting serine/threonine-protein kinase 2 (Homo sapiens) (Q9HBH9 whole entry, looked up): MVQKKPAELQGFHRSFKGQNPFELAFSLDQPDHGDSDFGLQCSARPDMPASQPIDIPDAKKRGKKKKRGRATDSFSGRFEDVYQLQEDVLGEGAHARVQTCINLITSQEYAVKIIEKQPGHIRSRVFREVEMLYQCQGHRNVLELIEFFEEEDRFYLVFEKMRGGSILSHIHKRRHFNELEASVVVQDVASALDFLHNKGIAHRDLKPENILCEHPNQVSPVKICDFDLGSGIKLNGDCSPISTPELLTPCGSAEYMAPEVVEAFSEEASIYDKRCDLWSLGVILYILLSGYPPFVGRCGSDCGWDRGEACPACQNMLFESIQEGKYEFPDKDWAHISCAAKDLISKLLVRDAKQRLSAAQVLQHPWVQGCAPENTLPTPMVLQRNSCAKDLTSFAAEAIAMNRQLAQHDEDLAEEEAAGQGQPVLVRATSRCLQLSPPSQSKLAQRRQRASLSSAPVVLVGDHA
Chain of Serine/threonine-protein kinase VRK2 (Homo sapiens) (Q86Y07 whole entry): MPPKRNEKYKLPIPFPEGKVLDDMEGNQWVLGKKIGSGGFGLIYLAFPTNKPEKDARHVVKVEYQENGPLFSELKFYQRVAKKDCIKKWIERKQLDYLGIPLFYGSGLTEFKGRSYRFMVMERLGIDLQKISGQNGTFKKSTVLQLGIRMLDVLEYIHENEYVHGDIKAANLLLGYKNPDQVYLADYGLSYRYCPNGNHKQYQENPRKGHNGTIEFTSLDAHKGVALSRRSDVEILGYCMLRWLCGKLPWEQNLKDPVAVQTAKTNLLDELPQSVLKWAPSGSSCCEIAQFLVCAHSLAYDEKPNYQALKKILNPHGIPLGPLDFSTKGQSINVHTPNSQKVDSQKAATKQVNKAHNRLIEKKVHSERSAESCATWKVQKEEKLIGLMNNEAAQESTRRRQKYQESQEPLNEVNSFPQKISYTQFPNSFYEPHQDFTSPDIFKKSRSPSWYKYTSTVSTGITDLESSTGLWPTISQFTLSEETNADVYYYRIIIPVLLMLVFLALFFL
Chain of Tyrosine-protein kinase ABL1 (Homo sapiens) (P00519 whole entry): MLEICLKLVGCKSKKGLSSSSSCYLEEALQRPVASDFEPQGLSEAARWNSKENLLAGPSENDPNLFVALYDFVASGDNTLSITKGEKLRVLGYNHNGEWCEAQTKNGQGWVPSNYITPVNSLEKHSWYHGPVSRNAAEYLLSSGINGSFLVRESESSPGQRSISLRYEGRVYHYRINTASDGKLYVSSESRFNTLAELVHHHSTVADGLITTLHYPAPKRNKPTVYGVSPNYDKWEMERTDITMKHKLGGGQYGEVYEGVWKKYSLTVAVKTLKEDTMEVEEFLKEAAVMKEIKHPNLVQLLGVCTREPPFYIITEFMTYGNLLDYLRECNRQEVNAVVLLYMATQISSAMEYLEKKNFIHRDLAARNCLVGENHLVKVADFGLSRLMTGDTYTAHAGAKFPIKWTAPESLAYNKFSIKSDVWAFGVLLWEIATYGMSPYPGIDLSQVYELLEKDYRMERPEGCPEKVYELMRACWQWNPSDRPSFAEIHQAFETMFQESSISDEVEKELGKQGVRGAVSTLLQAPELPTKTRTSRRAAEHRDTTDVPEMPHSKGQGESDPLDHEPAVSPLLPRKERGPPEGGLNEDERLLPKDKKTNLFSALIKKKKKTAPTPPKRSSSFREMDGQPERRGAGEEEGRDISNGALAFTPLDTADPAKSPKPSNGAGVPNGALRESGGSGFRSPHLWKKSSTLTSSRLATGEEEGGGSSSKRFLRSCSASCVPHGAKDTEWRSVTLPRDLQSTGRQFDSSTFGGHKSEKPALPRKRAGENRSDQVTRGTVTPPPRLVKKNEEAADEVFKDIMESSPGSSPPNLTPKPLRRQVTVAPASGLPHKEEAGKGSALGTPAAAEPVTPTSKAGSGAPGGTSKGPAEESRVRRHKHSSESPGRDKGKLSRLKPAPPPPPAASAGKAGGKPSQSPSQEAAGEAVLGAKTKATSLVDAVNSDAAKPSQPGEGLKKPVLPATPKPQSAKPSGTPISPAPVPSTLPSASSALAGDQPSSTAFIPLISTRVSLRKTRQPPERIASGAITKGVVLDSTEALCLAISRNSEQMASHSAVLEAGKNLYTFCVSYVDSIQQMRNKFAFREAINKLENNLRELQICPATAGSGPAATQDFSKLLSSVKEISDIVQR
Chain of Inhibitor of nuclear factor kappa-B kinase subunit alpha (Homo sapiens) (O15111 whole entry): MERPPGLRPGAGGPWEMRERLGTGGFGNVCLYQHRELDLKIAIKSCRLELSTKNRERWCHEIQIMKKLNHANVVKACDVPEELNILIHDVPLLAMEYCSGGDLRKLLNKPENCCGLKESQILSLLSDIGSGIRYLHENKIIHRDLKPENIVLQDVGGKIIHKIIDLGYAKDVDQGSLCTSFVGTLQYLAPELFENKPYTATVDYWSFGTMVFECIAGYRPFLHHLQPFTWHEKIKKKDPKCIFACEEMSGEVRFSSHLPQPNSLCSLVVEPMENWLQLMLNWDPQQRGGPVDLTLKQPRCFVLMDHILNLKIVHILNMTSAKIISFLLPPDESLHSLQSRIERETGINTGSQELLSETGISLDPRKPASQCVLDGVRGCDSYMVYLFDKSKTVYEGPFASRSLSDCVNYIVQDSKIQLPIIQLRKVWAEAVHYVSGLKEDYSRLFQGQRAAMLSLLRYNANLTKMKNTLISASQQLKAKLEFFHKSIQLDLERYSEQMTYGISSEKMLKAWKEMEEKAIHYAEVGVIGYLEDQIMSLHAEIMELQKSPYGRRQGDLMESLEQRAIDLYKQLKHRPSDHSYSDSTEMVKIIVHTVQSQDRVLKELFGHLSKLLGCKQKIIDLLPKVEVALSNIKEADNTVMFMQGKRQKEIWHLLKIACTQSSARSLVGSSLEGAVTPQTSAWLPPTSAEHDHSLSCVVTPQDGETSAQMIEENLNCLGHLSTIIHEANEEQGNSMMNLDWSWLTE

With `COc1ccc(N2C(=O)COc3ccc(-c4cnc(OC)c(NS(=O)(=O)c5ccc(F)cc5)c4)cc32)cc1` as the compound, how does the inhibition [1] read?
Its inhibition is 7.06%.

And the inhibition [2]?
The inhibition was 12.8%.

What about the inhibition [3] of the same compound?
The inhibition was -2.43%.

And the inhibition [4]?
Its inhibition is -3.2%.

What about the inhibition [5] of the same compound?
Its inhibition is -2.6%.

What about the inhibition [6] of the same compound?
Its inhibition is 1.15%.

And the inhibition [7]?
Its inhibition is 0.31%.

What about the inhibition [8] of the same compound?
Its inhibition is 25.8%.

And the inhibition [9]?
The inhibition was 4.12%.

What about the pIC50 (HepG2) of the same compound?
Its pIC50 is 4.88.

And the inhibition [10]?
The inhibition was 13.9%.

And the inhibition [11]?
Its inhibition is 7%.

And the inhibition [12]?
The inhibition was -6.25%.

And the inhibition [13]?
Its inhibition is 0.03%.

And the inhibition [14]?
The inhibition was 2.71%.

And the Activity (PC-12)?
The Activity was “Non-Toxic”.

And the inhibition in vivo at 40 mg/kg (A549)?
Its inhibition in vivo at 40 mg/kg is 70.2%.

What about the inhibition [15] of the same compound?
Its inhibition is 3.81%.

What about the inhibition in vivo at 50 mg/kg (HeLa) of the same compound?
Its inhibition in vivo at 50 mg/kg is 87.7%.

What about the inhibition [16] of the same compound?
The inhibition was -7.53%.

What about the Tmax [17] of the same compound?
The Tmax was 2.67 h.

What about the inhibition [18] of the same compound?
The inhibition was 14.2%.

And the inhibition [19]?
The inhibition was 12.7%.

What about the inhibition (Homo sapiens) of the same compound?
The inhibition was -8.22%.

And the inhibition [20]?
The inhibition was -2.21%.

What about the inhibition [21] of the same compound?
Its inhibition is 0.52%.

And the inhibition [22]?
Its inhibition is 21.1%.

What about the Activity [23] of the same compound?
Its Activity is “Non-Toxic”.

What about the inhibition [24] of the same compound?
Its inhibition is 11.4%.

And the inhibition [25]?
The inhibition was 1.19%.

What about the inhibition [26] of the same compound?
The inhibition was 12%.

What about the inhibition [27] of the same compound?
The inhibition was 10.4%.
